Results taken from ChEMBL document CHEMBL2163339, “Discovery of potent inhibitors of human and mouse fatty acid amide hydrolases” (J Med Chem, 2012).
Blank lines part the entries; values can stand above or below the molecule they belong to. Activity calls are given as the source filed them.

What was measured:
[1] = molecular target: T1, Fatty-acid amide hydrolase 1 (Mus musculus, UniProt O08914); experiment: Inhibition of mouse FAAH isolated from brain homogenate using [3H-ethanolamine]AEA as substrate incubated for 20 mins prior to substrate addition measured after 15 mins by beta counting analysis
T1 sequence (O08914 whole entry): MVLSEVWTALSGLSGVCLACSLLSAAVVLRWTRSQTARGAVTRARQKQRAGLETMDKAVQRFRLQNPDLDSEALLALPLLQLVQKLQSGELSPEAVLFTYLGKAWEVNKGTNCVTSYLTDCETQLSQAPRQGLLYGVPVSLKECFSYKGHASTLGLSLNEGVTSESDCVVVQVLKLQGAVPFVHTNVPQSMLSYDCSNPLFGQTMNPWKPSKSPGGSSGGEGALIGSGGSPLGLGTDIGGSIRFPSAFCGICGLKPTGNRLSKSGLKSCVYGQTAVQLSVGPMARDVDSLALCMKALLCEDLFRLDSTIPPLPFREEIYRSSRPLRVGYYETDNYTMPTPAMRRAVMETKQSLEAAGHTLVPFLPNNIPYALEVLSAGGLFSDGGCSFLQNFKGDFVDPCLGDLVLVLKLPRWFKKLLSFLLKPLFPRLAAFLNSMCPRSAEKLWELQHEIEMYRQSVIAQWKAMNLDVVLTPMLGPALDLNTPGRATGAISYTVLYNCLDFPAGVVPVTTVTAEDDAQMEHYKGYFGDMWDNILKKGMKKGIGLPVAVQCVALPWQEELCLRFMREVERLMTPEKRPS

[2] = molecular target: T2, Fatty-acid amide hydrolase 1 (Mus musculus) (UniProt O08914); experiment: Reversible inhibition of mouse FAAH isolated from brain homogenate using [3H-ethanolamine]AEA as substrate incubated for 20 mins prior to substrate addition measured after 18 hrs by […] method
T2 sequence (whole entry): T1 sequence (O08914 whole entry)

[3] = molecular target: T3, N-acyl-phosphatidylethanolamine-hydrolyzing phospholipase D (Mus musculus) (UniProt Q8BH82); experiment: Inhibition of NAPE-PLD-meidated AEA synthesis in mouse brain homogenate using [3H]NArPE as substrate incubated for 20 mins prior to substrate addition; assay type: tissue-based
T3 sequence (whole entry): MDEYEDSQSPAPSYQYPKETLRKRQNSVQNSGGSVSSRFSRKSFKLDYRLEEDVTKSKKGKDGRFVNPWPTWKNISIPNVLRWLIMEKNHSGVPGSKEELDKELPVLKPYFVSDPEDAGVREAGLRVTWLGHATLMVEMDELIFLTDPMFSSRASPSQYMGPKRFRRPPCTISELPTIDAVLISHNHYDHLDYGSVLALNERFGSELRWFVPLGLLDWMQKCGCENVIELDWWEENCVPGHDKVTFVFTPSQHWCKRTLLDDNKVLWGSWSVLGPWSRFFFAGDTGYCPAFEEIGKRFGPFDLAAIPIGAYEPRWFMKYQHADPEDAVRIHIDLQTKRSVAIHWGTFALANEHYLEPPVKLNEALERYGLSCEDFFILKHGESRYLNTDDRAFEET

Mus musculus [4] = experiment: Toxicity against CD1 mouse assessed as limbic/striatal stereotypies at 10 mg/kg, po at 60 mins by Irwin test; assay type: organism-based; parameters: dose 10 mg/kg, route oral; settings: in vivo, 1 h
Rattus norvegicus [5] = experiment: Analgesic activity in rat assessed as increase in paw withdrawal threshold at 10 mg/kg, po; assay type: functional, organism-based; parameters: dose 10 mg/kg
[6] = molecular target: T4, Monoglyceride lipase (Mus musculus) (UniProt O35678); experiment: Inhibition of MAGL-mediated 2AG hydrolysis in mouse brain homogenate using [3H]2OG as substrate incubated for 20 mins prior to substrate addition; assay type: tissue-based
T4 sequence (whole entry): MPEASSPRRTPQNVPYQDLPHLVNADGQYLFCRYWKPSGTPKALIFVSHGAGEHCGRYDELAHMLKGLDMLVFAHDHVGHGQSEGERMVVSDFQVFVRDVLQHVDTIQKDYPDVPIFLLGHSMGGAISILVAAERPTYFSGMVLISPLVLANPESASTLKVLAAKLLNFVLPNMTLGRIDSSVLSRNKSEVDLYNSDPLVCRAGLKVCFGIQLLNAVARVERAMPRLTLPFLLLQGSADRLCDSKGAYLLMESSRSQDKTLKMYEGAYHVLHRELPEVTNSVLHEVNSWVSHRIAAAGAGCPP

Mus musculus [7] = experiment: Toxicity against CD1 mouse assessed as limbic/striatal stereotypies at 30 mg/kg, po at 240 mins by Irwin test; assay type: organism-based; parameters: dose 30 mg/kg, route oral; settings: in vivo, 4 h
[8] = molecular target: T5, Fatty-acid amide hydrolase 1 (Homo sapiens, UniProt O00519); experiment: Inhibition of human recombinant FAAH
T5 sequence (O00519 whole entry): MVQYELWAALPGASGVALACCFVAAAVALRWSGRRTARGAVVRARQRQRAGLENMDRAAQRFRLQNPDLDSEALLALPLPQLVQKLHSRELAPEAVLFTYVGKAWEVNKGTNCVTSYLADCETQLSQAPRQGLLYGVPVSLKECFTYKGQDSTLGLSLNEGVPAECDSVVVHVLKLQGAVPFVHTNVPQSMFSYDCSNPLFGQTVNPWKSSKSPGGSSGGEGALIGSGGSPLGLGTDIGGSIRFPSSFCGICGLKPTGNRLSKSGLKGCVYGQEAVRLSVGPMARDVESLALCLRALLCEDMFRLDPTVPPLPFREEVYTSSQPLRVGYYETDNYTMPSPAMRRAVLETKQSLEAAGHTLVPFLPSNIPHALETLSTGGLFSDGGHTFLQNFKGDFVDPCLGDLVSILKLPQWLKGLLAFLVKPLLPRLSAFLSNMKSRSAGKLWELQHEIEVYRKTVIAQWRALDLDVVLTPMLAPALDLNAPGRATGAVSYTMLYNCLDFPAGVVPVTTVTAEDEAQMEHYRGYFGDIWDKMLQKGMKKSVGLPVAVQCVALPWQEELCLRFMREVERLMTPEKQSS

Mus musculus [9] = experiment: Anxiolytic activity in mouse at 10 mg/kg, po measured for 5 mins by elevated plus maze test; assay type: organism-based; parameters: dose 10 mg/kg, route oral; settings: in vivo
Mus musculus [10] = species: Mus musculus; experiment: Inhibition of DAGL-mediated 2AG synthesis in mouse brain homogenate using […] as substrate incubated for 20 mins prior to substrate addition; assay type: tissue-based
[11] = molecular target: Cannabinoid receptor 1 (Mus musculus) (UniProt P47746); experiment: Displacement of [3H]CP55.940 from CB1 receptor in mouse brain fraction; assay type: tissue-based
Cannabinoid receptor 1 (Mus musculus), sequence (P47746 whole entry): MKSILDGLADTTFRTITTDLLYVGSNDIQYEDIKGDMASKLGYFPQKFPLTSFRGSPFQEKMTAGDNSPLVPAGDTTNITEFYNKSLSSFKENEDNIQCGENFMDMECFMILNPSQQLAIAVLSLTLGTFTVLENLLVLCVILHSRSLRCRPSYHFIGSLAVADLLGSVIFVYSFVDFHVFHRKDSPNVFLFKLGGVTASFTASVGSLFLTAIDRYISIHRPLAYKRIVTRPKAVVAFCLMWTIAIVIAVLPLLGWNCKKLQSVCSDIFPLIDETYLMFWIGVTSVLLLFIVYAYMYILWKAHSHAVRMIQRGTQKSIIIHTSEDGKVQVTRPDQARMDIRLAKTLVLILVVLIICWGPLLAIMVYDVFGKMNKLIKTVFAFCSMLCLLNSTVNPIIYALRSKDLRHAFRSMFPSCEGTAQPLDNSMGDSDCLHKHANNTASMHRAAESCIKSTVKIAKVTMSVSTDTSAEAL

Mus musculus [12] = experiment: Anxiolytic activity in mouse at 3 mg/kg, po measured for 5 mins by elevated plus maze test; assay type: organism-based; parameters: dose 3 mg/kg, route oral; settings: in vivo
[13] = molecular target: Transient receptor potential cation channel subfamily V member 1 (Mus musculus) (UniProt Q704Y3); experiment: Displacement of [3H]RTX from TRPV1 receptor in mouse brain fraction; assay type: tissue-based
Transient receptor potential cation channel subfamily V member 1 (Mus musculus), sequence (Q704Y3 whole entry): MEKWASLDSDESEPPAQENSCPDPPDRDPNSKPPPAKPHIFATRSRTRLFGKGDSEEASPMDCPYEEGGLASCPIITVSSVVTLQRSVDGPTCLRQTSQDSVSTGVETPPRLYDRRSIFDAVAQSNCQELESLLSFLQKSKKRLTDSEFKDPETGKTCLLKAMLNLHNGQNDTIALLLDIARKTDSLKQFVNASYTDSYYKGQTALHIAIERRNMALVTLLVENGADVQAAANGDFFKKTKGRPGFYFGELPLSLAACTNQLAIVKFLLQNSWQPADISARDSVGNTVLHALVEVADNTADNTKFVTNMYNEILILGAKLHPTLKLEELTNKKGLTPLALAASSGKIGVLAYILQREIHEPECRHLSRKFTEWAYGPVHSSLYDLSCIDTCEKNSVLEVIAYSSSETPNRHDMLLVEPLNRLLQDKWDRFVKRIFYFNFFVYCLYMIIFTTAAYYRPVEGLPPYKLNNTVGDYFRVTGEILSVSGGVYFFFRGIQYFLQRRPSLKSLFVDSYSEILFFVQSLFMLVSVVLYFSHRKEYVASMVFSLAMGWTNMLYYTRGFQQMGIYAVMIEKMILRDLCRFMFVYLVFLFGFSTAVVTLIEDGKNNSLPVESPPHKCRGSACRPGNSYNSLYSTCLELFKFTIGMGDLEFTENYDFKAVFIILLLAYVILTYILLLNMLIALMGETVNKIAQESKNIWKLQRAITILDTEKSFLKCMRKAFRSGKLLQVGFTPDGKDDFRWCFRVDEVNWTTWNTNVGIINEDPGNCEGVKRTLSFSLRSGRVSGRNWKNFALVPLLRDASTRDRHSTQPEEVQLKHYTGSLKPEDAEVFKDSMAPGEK

Rattus norvegicus [14] = experiment: Analgesic activity in rat assessed as increase in paw withdrawal threshold at 100 mg/kg, po; assay type: functional, organism-based; parameters: dose 100 mg/kg
Mus musculus [15] = experiment: Toxicity against CD1 mouse assessed as limbic/striatal stereotypies at 10 mg/kg, po at 240 mins by Irwin test; assay type: organism-based; parameters: dose 10 mg/kg, route oral; settings: in vivo, 4 h
[16] = molecular target: Cannabinoid receptor 2 (Mus musculus) (UniProt P47936); experiment: Displacement of [3H]CP55.940 from CB2 receptor in mouse spleen fraction; assay type: tissue-based
Cannabinoid receptor 2 (Mus musculus), sequence (P47936 whole entry): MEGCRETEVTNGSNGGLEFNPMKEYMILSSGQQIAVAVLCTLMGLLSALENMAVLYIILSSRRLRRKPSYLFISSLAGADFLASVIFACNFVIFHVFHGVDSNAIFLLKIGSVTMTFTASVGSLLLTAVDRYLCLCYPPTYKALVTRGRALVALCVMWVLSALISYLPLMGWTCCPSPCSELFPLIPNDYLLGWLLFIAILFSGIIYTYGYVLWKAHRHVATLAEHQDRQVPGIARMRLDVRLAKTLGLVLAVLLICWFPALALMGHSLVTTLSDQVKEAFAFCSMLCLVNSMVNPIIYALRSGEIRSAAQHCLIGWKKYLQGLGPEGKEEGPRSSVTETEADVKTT

Mus musculus [17] = experiment: Anxiolytic activity in mouse at 30 mg/kg, po measured for 5 mins by elevated plus maze test; assay type: organism-based; parameters: dose 30 mg/kg, route oral; settings: in vivo
[18] = molecular target: Voltage-gated inwardly rectifying potassium channel KCNH2 (Homo sapiens, UniProt Q12809); experiment: Inhibition of human ERG expressed in CHOK1 cells for 5 mins by automated patch clamp assay; assay type: cell-based, CHO-K1
Voltage-gated inwardly rectifying potassium channel KCNH2, sequence (Q12809 whole entry): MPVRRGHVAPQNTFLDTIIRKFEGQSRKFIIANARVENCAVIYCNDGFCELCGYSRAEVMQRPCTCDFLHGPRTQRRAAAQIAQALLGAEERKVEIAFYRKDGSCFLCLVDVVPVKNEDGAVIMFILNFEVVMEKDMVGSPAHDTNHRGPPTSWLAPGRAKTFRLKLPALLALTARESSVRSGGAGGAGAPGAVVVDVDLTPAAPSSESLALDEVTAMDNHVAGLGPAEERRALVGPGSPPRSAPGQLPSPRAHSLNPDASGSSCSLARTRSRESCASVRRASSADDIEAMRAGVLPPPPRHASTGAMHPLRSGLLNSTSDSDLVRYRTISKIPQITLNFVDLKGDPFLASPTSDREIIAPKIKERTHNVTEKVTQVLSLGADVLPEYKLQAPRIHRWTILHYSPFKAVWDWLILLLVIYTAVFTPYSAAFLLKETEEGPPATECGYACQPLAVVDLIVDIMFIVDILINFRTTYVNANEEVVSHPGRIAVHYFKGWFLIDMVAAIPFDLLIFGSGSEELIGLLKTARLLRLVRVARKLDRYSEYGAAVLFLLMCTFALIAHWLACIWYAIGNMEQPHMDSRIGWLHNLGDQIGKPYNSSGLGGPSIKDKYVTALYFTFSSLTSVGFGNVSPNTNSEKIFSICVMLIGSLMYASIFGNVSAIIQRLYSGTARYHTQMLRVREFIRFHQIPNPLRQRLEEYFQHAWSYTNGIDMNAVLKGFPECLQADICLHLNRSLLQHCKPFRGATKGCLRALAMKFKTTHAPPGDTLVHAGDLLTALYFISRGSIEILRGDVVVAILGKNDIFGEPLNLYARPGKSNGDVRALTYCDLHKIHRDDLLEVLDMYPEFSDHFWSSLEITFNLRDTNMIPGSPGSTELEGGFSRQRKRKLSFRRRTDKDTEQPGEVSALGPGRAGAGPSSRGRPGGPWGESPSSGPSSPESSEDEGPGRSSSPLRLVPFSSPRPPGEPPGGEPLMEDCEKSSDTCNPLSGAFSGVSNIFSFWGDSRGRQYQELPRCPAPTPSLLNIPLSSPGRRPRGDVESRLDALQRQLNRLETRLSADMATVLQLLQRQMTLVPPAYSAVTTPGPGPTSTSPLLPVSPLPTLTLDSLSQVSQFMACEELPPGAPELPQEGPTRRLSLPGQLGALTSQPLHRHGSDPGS

Rattus norvegicus [19] = experiment: Analgesic activity in rat assessed as increase in paw withdrawal threshold at 30 mg/kg, po; assay type: functional, organism-based; parameters: dose 30 mg/kg
Mus musculus [20] = experiment: Toxicity against CD1 mouse assessed as limbic/striatal stereotypies at 100 mg/kg, po at 240 mins by Irwin test; assay type: organism-based; parameters: dose 100 mg/kg, route oral; settings: in vivo, 4 h
Mus musculus [21] = experiment: Toxicity against CD1 mouse assessed as limbic/striatal stereotypies at 30 mg/kg, po at 60 mins by Irwin test; assay type: organism-based; parameters: dose 30 mg/kg, route oral; settings: in vivo, 1 h
Mus musculus [22] = experiment: Toxicity against CD1 mouse assessed as limbic/striatal stereotypies at 100 mg/kg, po at 60 mins by Irwin test; assay type: organism-based; parameters: dose 100 mg/kg, route oral; settings: in vivo, 1 h
[23] = molecular target: T2, Fatty-acid amide hydrolase 1 (Mus musculus); experiment: Non-competitive inhibition of mouse FAAH isolated from brain homogenate using [3H-ethanolamine]AEA as substrate by Lineweaver-Burk plot analysis

SMILES: CCCCNC(=O)Oc1cccc(-c2oc(C)cc2C(N)=O)c1
IC50 [1]: 530 nM | Ki [1]: 140 nM

SMILES: NC(=O)c1ccn(-c2cccc(OC(=O)NCCOCCOc3ccc(F)cc3F)c2)c1
inhibition [2]: Active | IC50 [1]: 28 nM | Ki [1]: 7 nM

SMILES: CCCCNC(=O)Oc1cccc(-c2cc(C(N)=O)c(C)o2)c1
IC50 [1]: > 200 nM

SMILES: Cc1cc(C(N)=O)c(-c2cccc(OC(=O)NCCCCCCc3ccccc3)c2)o1
inhibition [3]: inactive | Activity (Mus musculus [4]): Toxic | Activity (Rattus norvegicus [5]): inactive | inhibition [6]: inactive | Activity (Mus musculus [7]): Non-toxic | IC50 [8]: 102 nM | Activity (Mus musculus [9]): Non-toxic | inhibition (Mus musculus [10]): inactive | Activity [11]: inactive | Activity (Mus musculus [12]): Non-toxic | Activity [13]: inactive | Activity (Rattus norvegicus [14]): Active | Activity (Mus musculus [15]): Non-toxic | IC50 [1]: 1.7 nM | Ki [1]: 0.49 nM | Activity [16]: inactive | Activity (Mus musculus [17]): Non-toxic | IC50 [18]: > 10000 nM | Activity (Rattus norvegicus [19]): Active | Activity (Mus musculus [20]): Non-toxic | Activity (Mus musculus [21]): Toxic | Activity (Mus musculus [22]): Toxic

SMILES: C#CCCCCCCCCCOC(=O)c1ccn(-c2cccc(OC(=O)NCCCC)c2)c1
IC50 [1]: > 70 nM

SMILES: NC(=O)c1ccn(-c2cccc(OC(=O)NCCOCCOc3c(F)cc(F)cc3F)c2)c1
IC50 [1]: 43 nM | Ki [1]: 11 nM

SMILES: Cc1cc(C(N)=O)c(-c2cccc(OC(=O)NCCCCCCc3ccccc3)c2)s1
inhibition [2]: Active | inhibition [3]: inactive | inhibition [6]: inactive | inhibition (Mus musculus [10]): inactive | Activity [11]: inactive | Activity [13]: inactive | IC50 [1]: 1.9 nM | Ki [1]: 0.5 nM | Activity [16]: inactive | inhibition [23]: Active | IC50 [18]: > 10000 nM

SMILES: C#CCCCCCCCCCOC(=O)c1ccn(-c2cccc(OC(=O)NCCCCCCc3ccccc3)c2)c1
IC50 [1]: > 200 nM

SMILES: NC(=O)c1cccc(-c2cccc(OC(=O)NCCCCCCc3ccccc3)c2)c1
IC50 [8]: 36 nM | IC50 [1]: 14 nM

inhibition [2]: Active
SMILES: O=C(CCCCCCc1ccccc1)c1ncc(-c2ccccn2)o1

SMILES: NC(=O)c1ccn(-c2cccc(OC(=O)NCCOCCOc3ccc(F)cc3)c2)c1
inhibition [2]: Active | IC50 [1]: 31 nM | Ki [1]: 8 nM

SMILES: CCCCNC(=O)Oc1cccc(-n2ccc(C(=O)OCCCCCCc3ccccc3)c2)c1
IC50 [1]: > 200 nM

SMILES: NC(=O)c1ccn(-c2cccc(OC(=O)NC3CCCCC3)c2)c1
IC50 [1]: 120 nM | Ki [1]: 32 nM

SMILES: Cc1oc(-c2cccc(OC(=O)NCCCCCCc3ccccc3)c2)cc1C(N)=O
IC50 [1]: 18 nM | Ki [1]: 4.8 nM
